Tests used:
Assay type in all cases: in vivo
[1] = test system: Abutilon theophrasti (ABUTH); assay: Herbicidal post-emergence action, ABUTH; conditions: 1280 g/ha, assessed visually after ca. 3 weeks vs untreated controls (Table B1)
Description: (§1) Seeds of mono- and dicotyledonous weed plants were sown in plastic pots (double sowings with one species of mono- and one species of dicotyledonous weed plants per pot), in sandy loam, covered with soil and grown under controlled growth conditions. 2 to 3 weeks after sowing, the test plants were sprayed in the single-leaf stage. The compounds according to the invention, formulated in the form of wettable powders (WP) or as emulsifiable concentrates (EC), were sprayed onto the green plant parts as an aqueous suspension or as an emulsion, with the addition of 0.5% of an additive, at an application rate of 600 litres of water per hectare (converted). The test plants were placed in the greenhouse for ca. 3 weeks under optimum growth conditions, and then the effect of the preparations is assessed visually in comparison with untreated controls (herbicidal effect in percent (%): 100% effect=plants have died, 0% effect=as control plants).

[2] = test system: Amaranthus retroflexus (AMARE); assay: Herbicidal pre-emergence action, AMARE
Description: (§2) Seeds of mono- and dicotyledonous weed plants were sown in plastic pots (double sowings with one species of mono- and one species of dicotyledonous weed plants per pot), in sandy loam, and covered with soil. The compounds according to the invention, formulated in the form of wettable powders (WP) or as emulsifiable concentrates (EC), were applied to the surface of the covering soil as an aqueous suspension or as an emulsion, with the addition of 0.5% of an additive, at an application rate of 600 litres of water per hectare (converted). Following treatment, the pots were placed in a greenhouse and kept under optimum growth conditions for the test plants. The visual grading of the damage to the test plants is carried out after ca. 3 weeks in comparison to untreated controls (herbicidal effect in percent (%): 100% effect=plants have died, 0% effect=as control plants). Seeds of mono- and dicotyledonous weed plants were sown in plastic pots (double sowings with one species of mono- and one species of dicotyledonous weed plants per pot), in sandy loam, and covered with soil. The compounds according to the invention, formulated in the form of wettable powders (WP) or as emulsifiable concentrates (EC), were applied to the surface of the covering soil as an aqueous suspension or as an emulsion, with the addition of 0.5% of an additive, at an application rate of 600 litres of water per hectare (converted). Following treatment, the pots were placed in a greenhouse and kept under optimum growth conditions for the test plants. The visual grading of the damage to the test plants is carried out after ca. 3 weeks in comparison to untreated controls (herbicidal effect in percent (%): 100% effect=plants have died, 0% effect=as control plants).

[3] = test system: Poa annua (POAAN); assay: Herbicidal pre-emergence action, POAAN
Description: as §2

[4] = test system: Setaria viridis (SETVI); assay: Herbicidal pre-emergence action, SETVI
Description: as §2

[5] = test system: Digitaria sanguinalis (DIGSA); assay: Herbicidal pre-emergence action, DIGSA
Description: as §2

[6] = test system: Lolium rigidum (LOLRI); assay: Herbicidal pre-emergence action, LOLRI
Description: as §2

[7] = test system: Kochia scoparia (KCHSC); assay: Herbicidal post-emergence action, KCHSC
Description: as §1, with “plants).[…]” for “plants).”

[8] = test system: Alopecurus myosuroides (ALOMY); assay: Herbicidal post-emergence action, ALOMY; conditions: 1280 g/ha, assessed visually after ca. 3 weeks vs untreated controls (Table B2)
Description: as §1

[9] = test system: Setaria viridis (SETVI); assay: Herbicidal post-emergence action, SETVI
Description: as §1, with “plants).[…]” for “plants).”

[10] = test system: Alopecurus myosuroides (ALOMY); assay: Herbicidal pre-emergence action, ALOMY; conditions: 1280 g/ha, visual grading after ca. 3 weeks vs untreated controls (Table A12)
Description: Seeds of mono- and dicotyledonous weed plants were sown in plastic pots (double sowings with one species of mono- and one species of dicotyledonous weed plants per pot), in sandy loam, and covered with soil. The compounds according to the invention, formulated in the form of wettable powders (WP) or as emulsifiable concentrates (EC), were applied to the surface of the covering soil as an aqueous suspension or as an emulsion, with the addition of 0.5% of an additive, at an application rate of 600 litres of water per hectare (converted). Following treatment, the pots were placed in a greenhouse and kept under optimum growth conditions for the test plants. The visual grading of the damage to the test plants is carried out after ca. 3 weeks in comparison to untreated controls (herbicidal effect in percent (%): 100% effect=plants have died, 0% effect=as control plants).

[11] = 320 g/ha, visual grading after ca. 3 weeks vs untreated controls (Table C8)
[12] = 1280 g/ha, visual grading after ca. 3 weeks vs untreated controls (Table A11)
[13] = 320 g/ha, visual grading after ca. 3 weeks vs untreated controls (Table C4)
[14] = 1280 g/ha, visual grading after ca. 3 weeks vs untreated controls (Table A7)
[15] = 320 g/ha, visual grading after ca. 3 weeks vs untreated controls (Table C5)
[16] = 1280 g/ha, visual grading after ca. 3 weeks vs untreated controls (Table A8)
[17] = 1280 g/ha, visual grading after ca. 3 weeks vs untreated controls (Table A2)
[18] = 320 g/ha, visual grading after ca. 3 weeks vs untreated controls (Table C2)
[19] = 1280 g/ha, visual grading after ca. 3 weeks vs untreated controls (Table A5)
[20] = 320 g/ha, assessed visually after ca. 3 weeks vs untreated controls (Table D1)
[21] = 1280 g/ha, assessed visually after ca. 3 weeks vs untreated controls (Table B4)

Row | Structure (SMILES) | herbicidal effect in percent, ABUTH [1] [%] | herbicidal effect in percent, AMARE [2, 11] [%] | herbicidal effect in percent, AMARE [2, 12] [%] | herbicidal effect in percent, POAAN [3, 13] [%] | herbicidal effect in percent, POAAN [3, 14] [%] | herbicidal effect in percent, SETVI [4, 15] [%] | herbicidal effect in percent, SETVI [4, 16] [%] | herbicidal effect in percent, DIGSA [5, 17] [%] | herbicidal effect in percent, LOLRI [6, 18] [%] | herbicidal effect in percent, LOLRI [6, 19] [%] | herbicidal effect in percent, KCHSC [7, 20] [%] | herbicidal effect in percent, KCHSC [7, 21] [%] | herbicidal effect in percent, ALOMY [8] [%] | herbicidal effect in percent, SETVI ([9]; 320 g/ha, assessed visually after ca. 3 weeks vs untreated controls (Table D8)) [%] | herbicidal effect in percent, SETVI ([9]; 1280 g/ha, assessed visually after ca. 3 weeks vs untreated controls (Table B7)) [%] | herbicidal effect in percent, DIGSA ([5]; 320 g/ha, visual grading after ca. 3 weeks vs untreated controls (Table C10)) [%] | herbicidal effect in percent, ALOMY [10] [%]
1 | O=C(Nc1ncns1)c1c(C2CC2)ccnc1Cl [Example I-003, 2-chloro-4-cyclopropyl-N-(1,2,4-thiadiazol-5-yl)pyridine-3-carboxamide] | 90 | 90 | 100 | 90 | 100 | 100 | 100 | 90 | 90 | 90 | 90 | 100 |  |  |  |  | 
2 | O=C(Nc1ncns1)c1c(C2CC2)ccnc1F [Example I-005] |  | 100 | 100 | 100 | 100 | 100 | 100 | 90 | 100 | 100 | 100 | 100 | 90 | 90 | 100 | 90 | 100
3 | O=C(Nc1nc(Cl)ns1)c1c(C2CC2)ccnc1Cl [Example I-013] | 90 |  | 90 |  |  |  |  |  |  | 90 |  |  | 90 |  |  |  | 
